Data: PMC12430443, “Discovery of Novel Benzamide-Based Sigma-1 Receptor Agonists with Enhanced Selectivity and Safety” (Molecules, 2025)

How the values were obtained:
[1] = Cytotoxicity, MTT/MTS assay; type: cell-based, human; details: human, SH-SY5Y neuroblastoma cells; percentage of cell death after 24 h treatment at 100 µM (duplicate); read-out: SY5Y % Cytotox
Experimental: (§1) To assess potential cytotoxicity in CNS-relevant cells, human neuroblastoma (SH-SY5Y) cells were exposed to compounds 2–7 at concentrations up to 100 μM. Cell viability was measured using the MTT assay.
(§2) Cytotoxicity was assessed in human SH-SY5Y neuroblastoma cells cultured in Dulbecco’s Modified Eagle Medium (DMEM, Gibco, Thermo Fisher Scientific Inc., Waltham, MA, USA) supplemented with 2 mM L-glutamine, 100 μg/mL streptomycin, 100 IU/mL penicillin, 1 mM non-essential amino acids (all from Invitrogen, Thermo Fisher Scientific Inc., Waltham, MA, USA), and 10% (v/v) heat-inactivated fetal bovine serum (Sigma-Aldrich, Burlington, MA, USA). Cells were maintained at 37 °C in a humidified 5% CO2 atmosphere and serum-starved for 24 h to synchronize cultures before treatment with the test compounds at final concentrations of 100, 50, 10, 5, 1, 0.5, 0.1, or 0.05 μM (all in <0.1% DMSO). […] Absorbance was measured at 490 nm, and the results were expressed as a percentage relative to untreated control cells (set at 100%).

[2] = system: SH-SY5Y neuroblastoma cells; assay: Cytotoxicity, MTT/MTS assay; type: cell-based, human; details: selectivity index; IC50 was considered > 100 µM
Experimental: as §1, §2

[3] = Bidirectional permeability in Caco-2 cells; type: in vitro ADME; details: human; for Papp A→B at 10 µM / Papp B→A at 10 µM: pH 7.4, 10 µM; for Papp A→B at 10 µM: n = 2, read-out: Permeability A/B pH7.4/7.4; for Papp B→A at 10 µM: n = 2, read-out: Permeability B/A pH7.4/7.4; for efflux ratio at 10 µM: read-out: e-ratio
Experimental: (§3) Solubility and stability remained unchanged in simulated gastric fluid (SGF) and simulated intestinal fluid (SIF), which mimic gastrointestinal digestion. Intestinal permeability was assessed using a two-chamber system with apical (A, pH 6.5) and basolateral (B, pH 7.4) compartments, representing the luminal and blood/mesenteric lymph sides of the gastrointestinal tract, respectively. […] The efflux ratios for both compounds ranged between 1 and 2, indicating improved permeability relative to the reference compound 1.
(§4) Standardized in vitro ADME experiments were performed by Eurofins Cerep (Poitiers, France). Solubility assays were performed in PBS at pH 7.4, but also in simulated gastric fluid (SGF) and intestinal fluid (SIF), through the classical shake-flask method described by Lipinski et al., using HPLC-UV/VIS technology. The results were expressed in µM. The compound was classically evaluated at 10 µM for all of the ADME analyses. Bidirectional permeability (apical A to basolateral B pH 6.5/7.4, and basolateral B to apical A pH 7.4/6.5) was assessed in the epithelial colorectal adenocarcinoma cell line (Caco-2 cell line). The results were expressed as ×10^−6 cm/s (Papp) and as % recovery. The efflux ratio, i.e., Papp (B→A)/Papp(A→B), was calculated. Plasma protein binding was analyzed by HPLC-MS/MS after 4 h of incubation at 37 °C, as described by Banker et al.. Concentration was evaluated by LC/MS-MS. CYP inhibition was performed in human liver microsomes as described in [28]. Analysis of the respective metabolites was performed by HPLC-MS/MS. Transporter inhibition analysis was also performed in overexpressing cell lines. Respective metabolites for each specific transporter substrate were analyzed by fluorometry or scintillation counting, and % inhibition of control values were calculated. P-glycoprotein transporter substrate assessment was performed by bidirectional permeability analysis (apical A to basolateral B pH 7.4/7.4, and basolateral B to apical A pH 7.4/7.4) in the Caco-2 cell line with and without verapamil, as described in [26]. The results were expressed as ×10^−6 cm/s (Papp) and as % recovery. The efflux ratio was calculated as Papp(B→A)/Papp(A→B). CYP450 induction was assessed in human hepatocytes by measuring the mRNA levels of seven CYP isoforms via qPCR, as described in [40]. The compound was tested at 1, 10, and 100 μM, and fold-induction values were compared with predefined cut-off thresholds for each isoform and hepatocyte lot.

[4] = Plasma protein binding; type: in vitro ADME; details: n = 2
Experimental: as §3
Standardized in vitro ADME experiments were performed by Eurofins Cerep (Poitiers, France). […] The compound was classically evaluated at 10 µM for all of the ADME analyses. Bidirectional permeability (apical A to basolateral B pH 6.5/7.4, and basolateral B to apical A pH 7.4/6.5) was assessed in the epithelial colorectal adenocarcinoma cell line (Caco-2 cell line). The results were expressed as ×10^−6 cm/s (Papp) and as % recovery. The efflux ratio, i.e., Papp (B→A)/Papp(A→B), was calculated. Plasma protein binding was analyzed by HPLC-MS/MS after 4 h of incubation at 37 °C, as described by Banker et al.. Concentration was evaluated by LC/MS-MS. […] Respective metabolites for each specific transporter substrate were analyzed by fluorometry or scintillation counting, and % inhibition of control values were calculated. […] The efflux ratio was calculated as Papp(B→A)/Papp(A→B). […]

[5] = biological target: ABST (Homo sapiens, UniProt Q12908); assay: Transporter inhibition in overexpressing cell lines; type: in vitro ADME; details: SLC family, n = 2, read-out: Drug transport inhibition ABST
Experimental: (§5) Microsomal stability was evaluated using human liver microsomes at 10 µM (Table 3). […] Since cytochrome P450 (CYP) enzymes—especially families 1 to 3—play major roles in drug metabolism, CYP inhibition was tested against the human isoforms CYP1A, 2B6, 2C8, 2C9, 2C19, 2D6, and 3A, as recommended by FDA and EMA guidelines. […] Membrane transport proteins, including the ATP-binding cassette (ABC) and solute carrier (SLC) families, affect drug pharmacokinetics and potential drug–drug interactions. The inhibitory effects of compounds 2 and 6 were assessed against five ABC transporters (P-gp, BCRP, MRP1, MRP2, and MRP3) and seven SLC transporters (OAT1, OAT3, OATP1B1, OCT1, OCT2, ASBT, and NTCP).
as §4

[6] = biological target: BCRP (Homo sapiens, UniProt Q9UNQ0); assay: as above; type: in vitro ADME; details: ABC family, n = 2, read-out: Drug transport inhibition BCRP
Experimental: as §5, §4

[7] = biological target: MRP1 (Homo sapiens, UniProt P33527); assay: as above; type: in vitro ADME; details: ABC family, n = 2, read-out: Drug transport inhibition MRP1
Experimental: as §5, §4

[8] = biological target: MRP2 (Homo sapiens, UniProt Q92887); assay: as above; type: in vitro ADME; details: ABC family, n = 2, read-out: Drug transport inhibition MRP2
Experimental: as §5, §4

[9] = biological target: MRP3 (Homo sapiens, UniProt O15438); assay: as above; type: in vitro ADME; details: ABC family, n = 2, read-out: Drug transport inhibition MRP3
Experimental: as §5, §4

[10] = biological target: OAT1 (Homo sapiens, UniProt Q4U2R8); assay: as above; type: in vitro ADME; details: SLC family, n = 2, read-out: Drug transport inhibition OAT1
Experimental: as §5, §4

[11] = biological target: OATP1B1 (Homo sapiens, UniProt Q9Y6L6); assay: as above; type: in vitro ADME; details: SLC family, n = 2, read-out: Drug transport inhibition OATP1B1
Experimental: as §5, §4

[12] = biological target: OCT2 (Homo sapiens, UniProt O15244); assay: as above; type: in vitro ADME; details: SLC family, n = 2, read-out: Drug transport inhibition OCT2
Experimental: as §5, §4

[13] = biological target: P-gp (Homo sapiens, UniProt P08183); assay: as above; type: in vitro ADME; details: ABC family, n = 2, read-out: Drug transport inhibition P-gp
Experimental: as §5, §4

P-gp, sequence (P08183 whole entry): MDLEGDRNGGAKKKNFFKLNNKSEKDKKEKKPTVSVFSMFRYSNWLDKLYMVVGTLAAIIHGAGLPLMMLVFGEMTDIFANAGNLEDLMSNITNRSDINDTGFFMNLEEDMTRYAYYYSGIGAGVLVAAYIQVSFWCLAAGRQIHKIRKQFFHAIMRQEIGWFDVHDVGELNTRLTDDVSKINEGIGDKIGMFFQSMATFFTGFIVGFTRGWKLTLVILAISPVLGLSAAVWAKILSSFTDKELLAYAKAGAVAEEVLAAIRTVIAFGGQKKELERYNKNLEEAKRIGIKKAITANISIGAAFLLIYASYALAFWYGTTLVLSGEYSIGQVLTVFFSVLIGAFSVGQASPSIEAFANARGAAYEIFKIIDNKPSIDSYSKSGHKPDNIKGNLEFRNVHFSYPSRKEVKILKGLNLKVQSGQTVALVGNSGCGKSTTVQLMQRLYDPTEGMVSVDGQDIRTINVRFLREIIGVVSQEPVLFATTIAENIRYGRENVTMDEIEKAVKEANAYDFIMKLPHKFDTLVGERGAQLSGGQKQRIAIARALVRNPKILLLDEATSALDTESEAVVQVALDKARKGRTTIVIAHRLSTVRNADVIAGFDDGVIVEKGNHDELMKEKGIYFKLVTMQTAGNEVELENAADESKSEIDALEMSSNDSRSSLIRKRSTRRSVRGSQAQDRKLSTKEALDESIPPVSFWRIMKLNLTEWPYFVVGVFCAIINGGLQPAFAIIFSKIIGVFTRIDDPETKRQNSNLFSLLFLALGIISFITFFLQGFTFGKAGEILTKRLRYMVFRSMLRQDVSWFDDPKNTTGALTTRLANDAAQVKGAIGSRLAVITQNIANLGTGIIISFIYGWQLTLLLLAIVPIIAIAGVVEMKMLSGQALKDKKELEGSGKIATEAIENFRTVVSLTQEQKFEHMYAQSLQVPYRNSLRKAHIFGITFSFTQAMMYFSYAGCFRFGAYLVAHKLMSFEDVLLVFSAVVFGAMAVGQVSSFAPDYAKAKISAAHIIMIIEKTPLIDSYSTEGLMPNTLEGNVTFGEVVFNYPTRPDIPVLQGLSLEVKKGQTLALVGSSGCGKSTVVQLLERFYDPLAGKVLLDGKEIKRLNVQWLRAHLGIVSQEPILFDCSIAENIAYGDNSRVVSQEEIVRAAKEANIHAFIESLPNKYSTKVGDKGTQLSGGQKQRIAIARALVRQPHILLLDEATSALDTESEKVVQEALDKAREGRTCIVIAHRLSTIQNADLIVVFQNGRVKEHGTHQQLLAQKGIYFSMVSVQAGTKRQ
MRP1, sequence (P33527 whole entry): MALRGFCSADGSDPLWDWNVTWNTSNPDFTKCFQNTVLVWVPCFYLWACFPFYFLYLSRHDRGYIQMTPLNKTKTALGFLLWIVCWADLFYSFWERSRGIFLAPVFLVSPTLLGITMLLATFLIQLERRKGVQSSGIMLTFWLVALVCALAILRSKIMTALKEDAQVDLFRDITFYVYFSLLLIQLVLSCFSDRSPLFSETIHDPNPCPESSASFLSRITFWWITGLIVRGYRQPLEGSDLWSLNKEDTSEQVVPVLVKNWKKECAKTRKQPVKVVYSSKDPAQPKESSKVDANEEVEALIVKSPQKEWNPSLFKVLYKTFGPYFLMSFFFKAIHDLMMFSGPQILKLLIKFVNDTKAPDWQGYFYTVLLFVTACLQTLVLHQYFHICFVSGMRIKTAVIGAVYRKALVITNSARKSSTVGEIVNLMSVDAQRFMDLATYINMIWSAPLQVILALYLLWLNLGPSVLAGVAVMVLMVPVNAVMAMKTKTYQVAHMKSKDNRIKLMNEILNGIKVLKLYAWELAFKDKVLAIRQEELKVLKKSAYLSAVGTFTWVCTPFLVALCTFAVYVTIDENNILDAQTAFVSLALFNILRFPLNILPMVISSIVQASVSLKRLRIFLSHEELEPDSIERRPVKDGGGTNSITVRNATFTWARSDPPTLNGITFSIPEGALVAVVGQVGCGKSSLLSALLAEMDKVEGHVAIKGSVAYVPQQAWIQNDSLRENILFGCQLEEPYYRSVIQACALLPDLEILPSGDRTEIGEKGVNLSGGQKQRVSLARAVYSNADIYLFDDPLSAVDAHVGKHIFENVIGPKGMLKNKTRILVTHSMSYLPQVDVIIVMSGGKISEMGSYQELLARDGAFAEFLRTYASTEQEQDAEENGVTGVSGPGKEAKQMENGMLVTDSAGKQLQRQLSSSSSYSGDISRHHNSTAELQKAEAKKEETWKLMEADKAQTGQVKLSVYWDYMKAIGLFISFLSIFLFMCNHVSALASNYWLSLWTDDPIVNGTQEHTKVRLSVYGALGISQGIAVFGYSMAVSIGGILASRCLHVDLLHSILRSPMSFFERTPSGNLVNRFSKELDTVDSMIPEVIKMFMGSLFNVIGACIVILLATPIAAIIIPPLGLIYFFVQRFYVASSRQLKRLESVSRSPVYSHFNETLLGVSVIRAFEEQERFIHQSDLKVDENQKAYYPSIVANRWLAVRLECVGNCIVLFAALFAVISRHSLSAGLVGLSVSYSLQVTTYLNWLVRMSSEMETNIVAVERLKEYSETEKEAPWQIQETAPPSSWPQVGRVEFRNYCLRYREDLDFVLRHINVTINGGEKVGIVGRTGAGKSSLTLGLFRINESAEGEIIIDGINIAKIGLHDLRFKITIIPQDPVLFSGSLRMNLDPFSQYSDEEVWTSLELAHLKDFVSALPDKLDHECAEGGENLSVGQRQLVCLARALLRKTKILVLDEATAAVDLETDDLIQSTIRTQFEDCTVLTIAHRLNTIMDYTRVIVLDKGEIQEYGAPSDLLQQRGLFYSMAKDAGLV
OCT2, sequence (O15244 whole entry): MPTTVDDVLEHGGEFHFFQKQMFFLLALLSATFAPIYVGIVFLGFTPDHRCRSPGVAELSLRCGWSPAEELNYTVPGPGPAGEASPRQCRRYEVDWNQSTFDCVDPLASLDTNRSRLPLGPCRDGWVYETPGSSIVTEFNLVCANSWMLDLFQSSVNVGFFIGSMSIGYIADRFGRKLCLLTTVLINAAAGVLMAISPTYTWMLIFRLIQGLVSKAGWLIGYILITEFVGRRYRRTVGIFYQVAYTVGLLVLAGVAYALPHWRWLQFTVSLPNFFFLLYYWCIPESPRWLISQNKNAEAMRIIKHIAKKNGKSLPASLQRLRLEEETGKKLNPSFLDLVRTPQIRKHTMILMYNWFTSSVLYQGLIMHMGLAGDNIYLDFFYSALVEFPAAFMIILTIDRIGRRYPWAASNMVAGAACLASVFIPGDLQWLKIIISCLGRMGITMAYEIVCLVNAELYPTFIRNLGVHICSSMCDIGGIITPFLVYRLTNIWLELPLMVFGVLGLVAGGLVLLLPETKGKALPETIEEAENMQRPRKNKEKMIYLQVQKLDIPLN
OATP1B1, sequence (Q9Y6L6 whole entry): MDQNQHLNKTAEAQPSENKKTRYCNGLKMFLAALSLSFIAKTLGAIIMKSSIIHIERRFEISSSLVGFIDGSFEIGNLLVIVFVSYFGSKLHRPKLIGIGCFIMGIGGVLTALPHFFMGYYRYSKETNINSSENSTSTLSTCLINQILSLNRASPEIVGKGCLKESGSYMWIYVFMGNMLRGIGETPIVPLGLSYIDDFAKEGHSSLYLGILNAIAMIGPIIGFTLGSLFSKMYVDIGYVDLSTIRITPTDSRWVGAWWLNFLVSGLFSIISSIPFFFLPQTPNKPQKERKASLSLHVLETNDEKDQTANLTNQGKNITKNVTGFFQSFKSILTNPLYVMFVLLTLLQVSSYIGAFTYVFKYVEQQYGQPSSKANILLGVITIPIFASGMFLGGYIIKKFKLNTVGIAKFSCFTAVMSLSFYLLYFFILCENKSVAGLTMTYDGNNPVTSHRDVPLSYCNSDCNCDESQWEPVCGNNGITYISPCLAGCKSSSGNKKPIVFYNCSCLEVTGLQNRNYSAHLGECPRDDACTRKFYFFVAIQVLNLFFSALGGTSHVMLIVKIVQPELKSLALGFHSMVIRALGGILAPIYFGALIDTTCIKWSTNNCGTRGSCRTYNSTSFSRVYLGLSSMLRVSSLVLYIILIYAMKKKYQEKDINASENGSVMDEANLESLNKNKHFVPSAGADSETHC
BCRP, sequence (Q9UNQ0 whole entry): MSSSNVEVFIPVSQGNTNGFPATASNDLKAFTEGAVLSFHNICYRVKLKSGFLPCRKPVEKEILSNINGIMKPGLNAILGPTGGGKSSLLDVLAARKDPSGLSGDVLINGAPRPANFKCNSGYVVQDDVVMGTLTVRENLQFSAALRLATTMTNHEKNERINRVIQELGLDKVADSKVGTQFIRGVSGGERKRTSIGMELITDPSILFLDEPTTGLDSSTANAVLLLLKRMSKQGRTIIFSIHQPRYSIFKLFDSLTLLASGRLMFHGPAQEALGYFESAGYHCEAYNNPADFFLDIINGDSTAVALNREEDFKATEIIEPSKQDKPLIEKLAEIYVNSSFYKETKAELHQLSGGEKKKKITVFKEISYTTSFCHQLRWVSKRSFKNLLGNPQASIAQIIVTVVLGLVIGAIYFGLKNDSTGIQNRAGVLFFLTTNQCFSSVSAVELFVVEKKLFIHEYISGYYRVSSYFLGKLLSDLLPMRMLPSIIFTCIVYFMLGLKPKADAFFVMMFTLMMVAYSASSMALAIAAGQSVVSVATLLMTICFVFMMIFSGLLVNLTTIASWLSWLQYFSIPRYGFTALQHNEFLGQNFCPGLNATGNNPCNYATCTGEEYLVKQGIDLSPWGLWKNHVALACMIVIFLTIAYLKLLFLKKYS
ABST, sequence (Q12908 whole entry, canonical isoform): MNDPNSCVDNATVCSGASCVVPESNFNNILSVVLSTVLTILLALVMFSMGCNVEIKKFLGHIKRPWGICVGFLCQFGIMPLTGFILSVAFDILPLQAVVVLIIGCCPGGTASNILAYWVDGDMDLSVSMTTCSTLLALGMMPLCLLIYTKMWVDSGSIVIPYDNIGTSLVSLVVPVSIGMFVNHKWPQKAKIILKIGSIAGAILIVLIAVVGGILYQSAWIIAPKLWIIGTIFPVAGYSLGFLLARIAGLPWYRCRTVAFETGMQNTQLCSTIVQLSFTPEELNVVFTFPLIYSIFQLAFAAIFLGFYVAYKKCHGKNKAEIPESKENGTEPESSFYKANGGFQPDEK

Structure (SMILES)	cytotoxicity at 24 h, 100 µM [1]	IC50 (SY5Y)/ Ki (S1R) [2]	Papp A→B at 10 µM [3]	Papp B→A at 10 µM [3]	efflux ratio at 10 µM [3]	fraction unbound at 4 h, 10 µM [4]	inhibition at 10 µM [5]	inhibition at 10 µM [6]	inhibition at 10 µM [7]	inhibition at 10 µM [8]	inhibition at 10 µM [9]	inhibition at 10 µM [10]	inhibition at 10 µM [11]	inhibition at 10 µM [12]	inhibition at 10 µM [13]
CN(CCC(=O)NCc1cccc(Cl)c1)Cc1ccccc1 [Compound 2, 3-(Benzylmethylamino)-N-(3-chlorobenzyl)propanamide]	12%	>166,666	39 ×10⁻⁶ cm/s	67.4 ×10⁻⁶ cm/s	1.7	0.02	21.8%	-9%	-0.3%	5.6%	0.7%	-23.1%	3.9%	54.1%	4.7%
CN(CCC(=O)NCc1ccc(C#N)cc1)Cc1ccccc1 [Compound 6, 3-(Benzylmethylamino)-N-(4-cyanobenzyl)propanamide]	8%	>17,857	49.8 ×10⁻⁶ cm/s	60.9 ×10⁻⁶ cm/s	1.2	0.37	-8.9%	-5.8%	-1.1%	3.3%	0.4%	-25.8%	1.3%	59.3%	4.7%
